Test results reported in patent US7405280B2, “Chromogenic substances and use thereof for the determination of carboxypeptidase activities” (Diagnostica Stago, priority 2001, dated 2008).

Experiments:
purified TAFI (TAFIa) = biological target: T1, purified TAFI (TAFIa) (Homo sapiens, UniProt Q96IY4); assay: Hydrolysis of MxAFR or MxPAFFK by activated purified TAFI solution; assay type: biochemical; conditions: purified TAFI 18 μg/ml
T1 sequence (Q96IY4 115-423): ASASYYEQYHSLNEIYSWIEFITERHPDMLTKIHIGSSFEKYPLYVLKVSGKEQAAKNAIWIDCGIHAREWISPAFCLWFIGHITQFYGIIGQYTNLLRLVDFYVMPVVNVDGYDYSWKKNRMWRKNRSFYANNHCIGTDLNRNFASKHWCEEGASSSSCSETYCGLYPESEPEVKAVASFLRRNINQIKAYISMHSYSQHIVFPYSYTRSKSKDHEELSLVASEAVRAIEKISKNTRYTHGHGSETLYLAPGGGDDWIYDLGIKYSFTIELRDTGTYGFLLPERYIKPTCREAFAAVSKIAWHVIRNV
Protocol: 2/ The method of the invention was then applied to a solution of purified TAFI either with a substrate with formula (I) (MxPAFFK) or with MxAFR to verify that TAFIa nevertheless hydrolyzes a compound with formula (I). Coagulation activation was triggered by the thrombin-thrombomodulin-CaCl2 complex (see protocol in Example N^o 2).
The reduction in coloration of each of the two samples was followed using a spectrophotometer. • a) Starting samples: purified TAFI solution, 18 μg/ml (diluted in Hepes buffer); • b) activating coagulation; • c) adding 27 mM MxAFR or MXPAFFK (control), concentration of MxAFFK; • d) adding CPA to the sample containing the MxPAFFK; • e) read OD at 382 nm.

TAFI = conditions: per 1 mg of PCI; as indicated by the manufacturer (Calbiochem); cited from earlier work
[1] = biological target: T2, porcine pancreatic carboxypeptidase B (Sus scrofa, UniProt P09955); assay: Decolorization of single amino acid substrate AAFR by porcine pancreatic carboxypeptidase B; assay type: biochemical; conditions: porcine CPB 5.2 mol/l in Hepes buffer; 5 mM AAFR; at 382 nm
T2 construct: purchased Sigma C9584; host or cells: porcine pancreas
T2 sequence (P09955 111-416): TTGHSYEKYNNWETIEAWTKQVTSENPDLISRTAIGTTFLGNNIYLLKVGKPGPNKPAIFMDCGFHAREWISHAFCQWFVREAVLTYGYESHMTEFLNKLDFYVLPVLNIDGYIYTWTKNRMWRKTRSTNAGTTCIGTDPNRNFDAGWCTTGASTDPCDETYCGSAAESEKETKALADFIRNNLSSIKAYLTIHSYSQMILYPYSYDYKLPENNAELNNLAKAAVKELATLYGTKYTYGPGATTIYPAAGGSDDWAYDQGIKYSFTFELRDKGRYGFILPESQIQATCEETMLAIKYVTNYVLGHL
Protocol: (§1) This substrate was constituted by a single amino acid carrying an anizylazoformyl chromophoric radical (CH3OC6H4—N═N—CO— portion). The amino acid selected was arginine, a basic amino acid normally hydrolyzed by carboxypeptidases B (1).
(§2) This substrate (0.25 mM) was brought into the presence of either a sample of plasma TAFI or a solution of porcine pancreatic carboxypeptidase B (Sigma, Reference: C9584), […].
(§3) The reduction in coloration of each of the two samples was followed using a spectrophotometer. Each sample was treated using the protocol below: • a) Starting sample: • plasma TAFI (present in a normal plasma pool—diluted to 1/20); or • porcine pancreatic carboxypeptidase B, […] (in Hepes buffer); • b) activation with thrombin-thrombomodulin-CaCl2 complex (see Example N^o 2) for the plasma TAFI sample; • c) addition of 5 mM AAFR; • d) read OD at 382 nm.

plasma TAFI (TAFIa) = biological target: T3, plasma TAFI (TAFIa) (Homo sapiens, UniProt Q96IY4); assay: Decolorization of single amino acid substrate AAFR by activated plasma TAFI; assay type: biochemical; conditions: compared with pancreatic CPB
T3 construct: from tissue; host or cells: normal plasma pool, diluted 1/20
T3 sequence (Q96IY4 115-423): T1 sequence (Q96IY4 115-423)
Protocol: as §1, §2, §3

Molecule	Hydrolysis by activated TAFI (conclusion) (purified TAFI (TAFIa))	Amount of TAFI (50 U/mg) inhibited at 50% by 1 mg of PCI (TAFI)	Final OD [1]	Starting OD [1]	Hydrolysis by activated TAFI (conclusion) (plasma TAFI (TAFIa))
COc1ccc(/N=N/C(=O)NC(Cc2ccccc2)C(=O)NC(CCCCN)C(=O)O)cc1 (stereo not drawn) [MxPAFFK, 4-metboxyphenylazoformylphenylalanyllysine]	active				
PCI: Carboxypeptidase Inhibitor from Potato Tubers, specific TAFI inhibitor (Calbiochem ref 217359) (QQHADPICNKPCKTHDDCSGAWFCQACWNSARTCGPYVG; UniProt P01075 1-39, looked up)		about 8 mg			
COc1ccc(N=NC(=O)N[C@@H](CCCNC(=N)N)C(=O)O)cc1 [AAFR, 4-methoxyphenylazoformylarginine]	does not hydrolyze		0.445	1.054	does not hydrolyze
